A short description of this series: Solubility of the Compound in water, biorelevant media (FaSSIF, FeSSIF) and oils. Type of series: physicochemical.

The values that follow come from US11478459B2, “Pharmaceutical preparation” (Merck Patent GmbH, priority 2017, dated 2022).

Broadly, the solubility is the concentration that dissolves in the medium under given conditions.

Values after ≈ are worked out from the molar mass of the structure shown. Where two headings read alike, the source gives them in different places.

Take `COc1cc2ncc3c(c2cc1-c1cnn(C)c1)n(-c1ccc(C#N)cc1F)c(=O)n3C` [3-Fluoro-4-[7-methoxy-3-methyl-8-(1-methyl-1H-pyrazol-4-yl)-2-oxo-2,3-dihydro-imidazo[4,5-c]quinolin-1-yl]-benzonitrile]: the “DCS classification (Butler and Dressman, 2010)” value is given as “DCS IIb”. For the setting “FaSSIF, read-out: solubility in Fasted Simulated Intestinal Fluid (FaSSIF)”, the solubility is 0.25 µg/mL (≈ 0.584 µM). The solubility (FeSSIF, read-out: solubility in FedState Simulated Intestinal Fluid (FeSSIF)) was 1 µg/mL (≈ 2.33 µM). Besides, where the note is “estimated efficacious human dose of >100 mg”, the dose/solubility ratio entry was “at least 100,000”. Besides, for the setting “in words”, the “solubility in the tested oils” value is given as “low solubility”; the “solubility in water and biorelevant media” value is listed as “very low solubility”.
Regarding `COc1cc2ncc3c(c2cc1-c1cnn(C)c1)n(-c1ccc(C#N)cc1F)c(=O)n3C` [Compound, 3-Fluoro-4-[7-methoxy-3-methyl-8-(1-methyl-1H-pyrazol-4-yl)-2-oxo-2,3-dihydro-imidazo[4,5-c]quinolin-1-yl]-benzonitrile], for the setting “FaSSIF, as restated in Example 5, read-out: solubility of the Compound in FaSSIF”, the solubility was about 0.25 µg/mL (≈ 0.584 µM).
